Columns and labels:
[1] = molecular target: EGFR WT (Homo sapiens, UniProt P00533); test: Kinase inhibition assay (mobility shift); assay type: biochemical
Method: (§1) Experiment 1 Kinase Inhibition Assay Mobility shift assays were performed to determine inhibitory activity of compounds against EGFR^Δ19del/T790M/C797S, EGFR WT and IGF1R kinases. The enzymatic reaction scheme is as follows:
(§2) 1. Preparing 1*Kinase Buffer as follows:
(§3) 2. Preparing compound concentration gradient: the initial concentration of the compound tested in the assay was 3,000 nM or 100 nM, which is then diluted to be 100-fold final concentration in 100% DMSO in a 384-source plate. Compounds in 10 concentrations were diluted in a 3-fold gradient with Precision. 250 nL of compound in 100-fold final concentration was transferred to OptiPlate-384F plate by using a dispenser named Echo 550.
(§4) 3. Preparing kinase solution at 2.5-fold the final concentration with 1×kinase buffer.
(§5) 4. Adding 10 μL of kinase solution at 2.5-fold the final concentration to compound wells and positive control wells respectively; and adding 10 μL of 1×kinase buffer to negative control wells.
(§6) 5. Centrifuging the wells at 1,000 rpm for 30 seconds, mixing the reaction plate well by shaking and incubating it at room temperature for 10 minutes.
(§7) 6. Preparing a mixed solution of ATP and kinase substrate at 5-fold/3-fold the final concentration with 1×Kinase buffer, respectively.
(§8) 7. Initiating the reaction by adding 15 μL of the mixed solution of ATP and kinase substrate at 5-fold/3-fold the final concentration.
(§9) 8. Centrifuging the 384-well plate at 1,000 rpm for 30 seconds, mixing the reaction plate well by shaking and incubating it at room temperature for a corresponding time.
(§10) 9. Adding 30 μL of assay stop solution to stop the kinase reaction, and centrifuging the plate at 1,000 rpm for 30 seconds and mixing it well by shaking.
(§11) 10. Reading the conversion rate with Caliper EZ Reader.
(§12) [formula] • wherein, “Conversion % sample” is the conversion rate reading of the sample;
(§13) “Conversion %_min” is the mean value of the negative control wells, representing the conversion rate readings of the well without enzymatic activity; “Conversion %_max” is the mean value of the positive control wells, representing the conversion rate readings of the wells without compound inhibition. • Dose-response curve is plotted with the logarithmic concentration on the X-axis and percent inhibition on the Y-axis. The fitting of the dose-response curve is made with the module “log(inhibitor) vs. response—Variable slope” of the analysis software GraphPad Prism 5, so that the IC50 value of each compound on enzymatic activity is obtained. • The calculation formula is: Y=Bottom+(Top−Bottom)/(1+10^((Log IC50−X)*HillSlope)).

[2] = molecular target: EGFR Δ19del/T790M/C797S (Homo sapiens, UniProt P00533, T790M/C797S, form not given); test: Kinase inhibition assay (mobility shift); assay type: biochemical
Sequence of EGFR Δ19del/T790M/C797S (P00533 with tags, fused parts or gaps DEL746-750/T790M/C797S, form open): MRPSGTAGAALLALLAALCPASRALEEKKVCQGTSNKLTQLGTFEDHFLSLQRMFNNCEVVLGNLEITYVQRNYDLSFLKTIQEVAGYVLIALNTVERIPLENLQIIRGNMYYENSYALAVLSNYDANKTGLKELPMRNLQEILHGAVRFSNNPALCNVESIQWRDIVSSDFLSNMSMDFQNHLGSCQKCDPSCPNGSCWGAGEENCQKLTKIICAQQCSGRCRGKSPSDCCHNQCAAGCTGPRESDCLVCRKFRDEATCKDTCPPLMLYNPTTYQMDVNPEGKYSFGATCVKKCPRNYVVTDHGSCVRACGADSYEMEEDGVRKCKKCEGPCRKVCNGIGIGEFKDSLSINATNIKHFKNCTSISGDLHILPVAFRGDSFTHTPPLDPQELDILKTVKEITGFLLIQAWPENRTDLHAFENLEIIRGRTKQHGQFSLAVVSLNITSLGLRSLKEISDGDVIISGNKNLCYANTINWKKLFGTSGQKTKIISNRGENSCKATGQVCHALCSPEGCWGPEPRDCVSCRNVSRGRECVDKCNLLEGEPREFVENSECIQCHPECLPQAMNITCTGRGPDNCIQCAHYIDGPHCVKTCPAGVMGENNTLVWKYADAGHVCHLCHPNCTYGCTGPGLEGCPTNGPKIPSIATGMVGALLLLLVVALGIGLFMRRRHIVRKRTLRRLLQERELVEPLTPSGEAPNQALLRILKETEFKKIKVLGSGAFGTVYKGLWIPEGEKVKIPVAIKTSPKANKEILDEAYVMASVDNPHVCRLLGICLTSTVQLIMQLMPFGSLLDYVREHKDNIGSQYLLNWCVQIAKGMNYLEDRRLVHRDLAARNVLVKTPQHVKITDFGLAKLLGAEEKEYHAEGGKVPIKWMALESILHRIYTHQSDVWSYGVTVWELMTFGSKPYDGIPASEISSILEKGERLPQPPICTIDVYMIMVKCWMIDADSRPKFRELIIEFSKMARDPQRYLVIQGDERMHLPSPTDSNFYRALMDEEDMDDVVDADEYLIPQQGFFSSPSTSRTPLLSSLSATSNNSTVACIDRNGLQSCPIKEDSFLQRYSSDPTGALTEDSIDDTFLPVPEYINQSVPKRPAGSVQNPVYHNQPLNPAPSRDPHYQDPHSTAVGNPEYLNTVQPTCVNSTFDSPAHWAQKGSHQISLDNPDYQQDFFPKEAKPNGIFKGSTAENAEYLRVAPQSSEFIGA
Method: as §1, §2, §3, §4, §5, §6, §7, §8, §9, §10, §11, §12, §13

[3] = molecular target: IGF1R (Homo sapiens, UniProt P08069); test: Kinase inhibition assay (mobility shift); assay type: biochemical
Method: as §1, §2, §3, §4, §5, §6, §7, §8, §9, §10, §11, §12, §13

[4] = molecular target: Ba/F3 EGFR WT (Homo sapiens, UniProt P00533); test: Cell proliferation experiment (CellTiter Glo, 72 hours); assay type: cell-based; details: read-out: BaF3 EGFR WT IC50
Sequence of Ba/F3 EGFR WT (P00533 whole entry, change not shown): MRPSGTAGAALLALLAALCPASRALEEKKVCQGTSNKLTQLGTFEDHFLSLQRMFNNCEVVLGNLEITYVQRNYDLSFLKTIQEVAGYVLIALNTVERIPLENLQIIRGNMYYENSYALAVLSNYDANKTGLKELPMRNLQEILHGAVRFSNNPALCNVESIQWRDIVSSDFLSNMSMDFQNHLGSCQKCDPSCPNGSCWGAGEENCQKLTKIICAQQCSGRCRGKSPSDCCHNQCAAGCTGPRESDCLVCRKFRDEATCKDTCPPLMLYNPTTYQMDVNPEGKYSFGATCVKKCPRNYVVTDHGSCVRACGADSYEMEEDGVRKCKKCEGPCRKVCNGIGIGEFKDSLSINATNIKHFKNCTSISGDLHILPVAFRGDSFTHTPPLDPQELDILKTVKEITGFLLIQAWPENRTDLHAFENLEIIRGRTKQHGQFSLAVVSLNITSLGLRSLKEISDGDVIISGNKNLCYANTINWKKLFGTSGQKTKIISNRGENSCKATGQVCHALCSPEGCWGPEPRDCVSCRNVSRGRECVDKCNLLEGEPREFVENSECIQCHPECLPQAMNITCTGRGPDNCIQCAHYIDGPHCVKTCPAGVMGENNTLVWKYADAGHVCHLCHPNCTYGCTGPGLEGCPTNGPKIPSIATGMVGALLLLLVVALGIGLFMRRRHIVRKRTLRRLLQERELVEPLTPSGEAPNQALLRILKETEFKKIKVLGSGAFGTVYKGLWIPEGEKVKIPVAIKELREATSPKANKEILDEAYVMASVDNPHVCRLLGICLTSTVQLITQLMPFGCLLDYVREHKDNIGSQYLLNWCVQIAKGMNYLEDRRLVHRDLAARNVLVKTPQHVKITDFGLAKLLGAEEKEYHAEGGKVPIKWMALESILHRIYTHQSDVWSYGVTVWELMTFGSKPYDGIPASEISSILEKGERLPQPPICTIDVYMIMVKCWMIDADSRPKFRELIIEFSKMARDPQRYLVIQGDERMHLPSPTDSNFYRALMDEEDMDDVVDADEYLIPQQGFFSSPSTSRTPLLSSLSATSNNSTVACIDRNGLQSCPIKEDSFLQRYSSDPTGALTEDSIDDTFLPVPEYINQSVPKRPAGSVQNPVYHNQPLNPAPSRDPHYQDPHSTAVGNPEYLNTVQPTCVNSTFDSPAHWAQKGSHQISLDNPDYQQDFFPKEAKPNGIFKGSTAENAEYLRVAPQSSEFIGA
Method: (§14) Experiment 2 Cell Proliferation Experiment
(§15) Suspension cells: Ba/F3 cells with stable overexpression of Δ19del/T790M/C797S mutant gene, named Ba/F3-Δ19del/T790M/C797S; Ba/F3 cells with overexpression of EGFR WT, named Ba/F3 EGFR WT.
(§16) RPMI 1640 with 10% FBS and 1% Penicillin-Streptomycin, or DMEM with 10% FBS and 1% Penicillin-Streptomycin.
(§17) a) Diluting compounds being tested (20 mM stock solutions), as an initial concentration, to 10 mM with 100% DMSO, followed by diluting compounds serially in a 3-fold gradient such that each compound is diluted into 12 concentrations (Cat #P-05525, Labcyte).
(§18) b) Diluting the above compound solutions for 100-fold with culture medium to prepare 10-fold working solution.
(§19) b) Seeding cells into 96-well cell culture plate at a density of 2000 or 3000 cells/well, with 135 μL/well.
(§20) a) Adding the compound prepared in step 2 to the cell plate at 15 μL per well, resulting in a final maximum concentration of 10000 nM or 1111 nM. The compounds is diluted serially in a 3-fold gradient such that each compound is diluted into 9 concentrations, wherein the final concentration of DMSO is 0.1%. Blank control wells are added with medium (0.1% DMSO).
(§21) b) Re-incubating the cells in an incubator for 72 hours. 5. Detection
(§22) a) Adding 50 μL of CTG reagent (CellTiter Glo kit, promega, Cat #G7573) to the 96-well cell culture plate.
(§23) b) Shaking the plate for 2 minutes and reacting at room temperature for 10 minutes.
(§24) c) Reading the luminescence signal value (Lum) using PerkinElmer reader.
(§25) The cell survival inhibition rate of each well was calculated. The data was analyzed by GraphPad Prism 6.0 software. The dose-response curve was obtained by fitting the data with a nonlinear regression equation. The IC50 of each compound was calculated as follows:
(§26) Cell survival inhibition rate (%)=(1−(Lumcompound tested−Lummedium control)/(Lumcell control−Lummedium control))×100%
(§27) Y=Min+(Max−Min)/(1+10^((Log IC50−X)*Slope));
(§28) X: logarithm of compound concentration. Y: cell survival inhibition rate.

[5] = molecular target: Ba/F3-Δ19del/T790M/C797S (Homo sapiens, UniProt P00533, T790M/C797S, cells depend on it, form not given); test: as above; assay type: cell-based; details: read-out: Ba/F3/EGFR Δ19del/T790M/C797S IC50
Sequence of Ba/F3-Δ19del/T790M/C797S (P00533 with tags, fused parts or gaps DEL746-750/T790M/C797S, form open): as the sequence (P00533 with tags, fused parts or gaps DEL746-750/T790M/C797S, form open) above
Method: as §14, §15, §16, §17, §18, §19, §20, §21, §22, §23, §24, §25, §26, §27, §28

[6] = tested on: human epidermal cancer cells A431 carrying EGFR WT; test: as above; assay type: cell-based; details: Homo sapiens, A-431
Method: as §14
Adherent cells: human epidermal cancer cells A431 carrying EGFR WT.
as §16, §17, §18, §19, §20, §21, §22, §23, §24, §25, §26, §27, §28

Sequence of EGFR WT (P00533 25-1210): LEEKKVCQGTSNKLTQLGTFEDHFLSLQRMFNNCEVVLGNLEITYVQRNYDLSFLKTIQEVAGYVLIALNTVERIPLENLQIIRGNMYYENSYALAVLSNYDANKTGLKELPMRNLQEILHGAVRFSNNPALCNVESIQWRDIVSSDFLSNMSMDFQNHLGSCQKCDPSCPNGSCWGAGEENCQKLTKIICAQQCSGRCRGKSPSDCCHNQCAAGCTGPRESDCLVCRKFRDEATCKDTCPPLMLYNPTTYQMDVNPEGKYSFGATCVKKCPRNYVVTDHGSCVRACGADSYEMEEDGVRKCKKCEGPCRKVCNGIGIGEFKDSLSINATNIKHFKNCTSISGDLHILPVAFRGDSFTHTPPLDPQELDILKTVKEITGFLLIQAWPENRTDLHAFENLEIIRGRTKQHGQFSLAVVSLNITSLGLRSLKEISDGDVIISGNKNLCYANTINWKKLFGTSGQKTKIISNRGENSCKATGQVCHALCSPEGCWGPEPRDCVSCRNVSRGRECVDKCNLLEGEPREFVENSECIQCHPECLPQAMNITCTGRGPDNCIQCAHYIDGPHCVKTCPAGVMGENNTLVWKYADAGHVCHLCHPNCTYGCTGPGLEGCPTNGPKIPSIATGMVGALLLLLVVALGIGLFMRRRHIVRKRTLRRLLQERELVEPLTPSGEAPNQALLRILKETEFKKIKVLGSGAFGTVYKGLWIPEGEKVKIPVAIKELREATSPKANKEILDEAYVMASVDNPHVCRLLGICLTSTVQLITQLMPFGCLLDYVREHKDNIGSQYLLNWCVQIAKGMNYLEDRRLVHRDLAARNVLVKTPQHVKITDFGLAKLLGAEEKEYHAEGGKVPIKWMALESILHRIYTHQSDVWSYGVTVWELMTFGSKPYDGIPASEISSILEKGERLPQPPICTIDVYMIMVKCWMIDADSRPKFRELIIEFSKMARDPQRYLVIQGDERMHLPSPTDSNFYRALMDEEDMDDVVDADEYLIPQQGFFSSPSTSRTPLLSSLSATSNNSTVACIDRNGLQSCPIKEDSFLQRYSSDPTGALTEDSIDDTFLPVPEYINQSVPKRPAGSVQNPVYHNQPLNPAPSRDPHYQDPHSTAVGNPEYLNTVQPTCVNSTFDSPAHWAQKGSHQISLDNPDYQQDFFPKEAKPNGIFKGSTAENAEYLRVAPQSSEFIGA

Compound | IC50 [1] | IC50 [2] | IC50 [3] | GI50 [4] | GI50 [5] | IC50 [6]
COc1cc(N2CCN(C3CCCC3)CC2)c(C)cc1Nc1ncc(Br)c(Nc2ccc3nc(C4CC4)ccc3c2P(C)(C)=O)n1 [Compound J-032, (6-((5-Bromo-2-((4-(4-cyclopentylpiperazin-1-yl)-2-methoxy-5-methylphenyl)amino)pyrimidin-4-yl)amino)-2-cyclopropylquinolin-5-yl)dimethylphosphine oxide] | 121 nM | 1 nM | 170 nM |  |  | 
COc1cc(Nc2ncc(Br)c(Nc3ccc4nc(C5CC5)ccc4c3P(C)(C)=O)n2)c(C2CCOCC2)cc1N1CCC(N2CCN(C)CC2)CC1 [Compound J-026, (6-((5-Bromo-2-((5-methoxy-4-(4-(4-methylpiperazin-1-yl)piperidin-1-yl)-2-(tetrahydro-2H-pyran-4-yl)phenyl)amino)pyrimidin-4-yl)amino)-2-cyclopropylquinolin-5-yl)dimethylphosphine oxide] | > 3000 nM | 36 nM | > 3000 nM |  |  | 
COc1cc(N2CCC(N3CCN(C)CC3)CC2)c(F)cc1Nc1ncc(Br)c(Nc2ccc3nc(C4CC4)ccc3c2P(C)(C)=O)n1 [Compound J-019, (6-((5-Bromo-2-((5-fluoro-2-methoxy-4-(4-(4-methylpiperazin-1-yl)piperidin-1-yl)phenyl)amino)pyrimidin-4-yl)amino)-2-cyclopropylquinolin-5-yl)dimethylphosphine oxide] | 16 nM | 0.33 nM | 222 nM |  |  | 
COc1cc(N2CCN(C3CC3)CC2)c(C)cc1Nc1ncc(Br)c(Nc2ccc3nc(C4CC4)ccc3c2P(C)(C)=O)n1 [Compound J-038, (6-((5-Bromo-2-((4-(4-cyclopropylpiperazin-1-yl)-2-methoxy-5-methylphenyl)amino)pyrimidin-4-yl)amino)-2-cyclopropylquinolin-5-yl)dimethylphosphine oxide] | 171 nM | 0.9 nM | 586 nM |  |  | 
COc1cc(Nc2ncc(Br)c(Nc3ccc4nc(C5CC5)ccc4c3P(C)(C)=O)n2)c(C2CC2)cc1N1CCOCC1 [Compound J-004, (6-((5-Bromo-2-((2-cyclopropyl-5-methoxy-4-morpholinylphenyl)amino)pyrimidin-4-yl)amino)-2-cyclopropylquinoline-5-yl)dimethylphosphine oxide] | 283 nM | 0.7 nM | 380 nM |  |  | 
CCc1cc(Nc2ncc(Br)c(Nc3ccc4nc(-c5cnn(C)c5)ccc4c3P(C)(C)=O)n2)c(OC)cc1N1CCC(N2CCN(C)CC2)CC1 [Compound J-017, (6-((5-Bromo-2-((5-ethyl-2-methoxy-4-(4-(4-methylpiperazin-1-yl)piperidin-1-yl)phenyl)amino)pyrimidin-4-yl)amino)-2(1-methyl-1H-pyrazol-4-yl)quinolin-5-yl)dimethylphosphine oxide] | 18.4 nM | 0.3 nM | 246 nM |  |  | 
COc1cc(N2CCC(N3CCN(C)CC3)CC2)c(-c2cnn(C)n2)cc1Nc1ncc(Br)c(Nc2ccc3nc(C4CC4)ccc3c2P(C)(C)=O)n1 [Compound J-046, (6-((5-Bromo-2-((2-methoxy-5-(2-methyl-2H-1,2,3-triazol-4-yl)-4-(4-(4-methylpiperazin-1-yl)piperidin-1-yl)phenyl)amino)pyrimidin-4-yl)amino)-2-cyclopropylquinolin-5-yl)dimethylphosphine oxide] |  |  |  | 117 nM | 1.2 nM | 475 nM
COc1cc(N2CCN(C3CCN(C)CC3)CC2)c(-c2cnn(C)c2)cc1Nc1ncc(Br)c(Nc2ccc3nc(C4CC4)ccc3c2P(C)(C)=O)n1 [Compound J-066, (6-((5-Bromo-2-((2-methoxy-5-(1-methyl-1H-pyrazol-4-yl)-4-(4-(1-methylpiperidine-4-yl)piperazin-1-yl)phenyl)amino)pyrimidin-4-yl)amino)-2-cyclopropylquinolin-5-yl)dimethylphosphine oxide] |  |  |  | 77.9 nM | 4.4 nM | 259 nM
COc1cc(N2CCN(C3CCCC3)CC2)c(C)cc1Nc1ncc(Br)c(Nc2ccc3nc(C4CC4)ccc3c2P(C)(C)=O)n1 [Compound J-037, (6-((5-Bromo-2-((4-(4-cyclopentylpiperazin-1-yl)-2-methoxy-5-methylphenyl)amino)pyrimidin-4-yl)amino)-2-cyclopropylquinolin-5-yl)dimethylphosphine oxide] | 138 nM |  | 210 nM |  |  | 
COc1cc(NCC2CCOCC2)c(-c2cnn(C)c2)cc1Nc1ncc(Br)c(Nc2ccc3nc(C4CC4)ccc3c2P(C)(C)=O)n1 [Compound J-053, (6-((5-Bromo-2-((2-methoxy-5-(1-methyl-1H-pyrazol-4-yl)-4-(((tetrahydro-2H-pyran-4-yl)methyl)amino)phenyl)amino)pyrimidin-4-yl)amino)-2-cyclopropylquinolin-5-yl)dimethylphosphine oxide] |  |  |  | 54 nM | 3.9 nM | 753 nM
COc1cc(N2CCN(c3ccncn3)CC2)c(-c2cnn(C)c2)cc1Nc1ncc(Br)c(Nc2ccc3nc(C4CC4)ccc3c2P(C)(C)=O)n1 [Compound J-060, (6-((5-Bromo-2-((2-methoxy-5-(1-methyl-1H-pyrazol-4-yl)-4-(4-(pyrimidin-4-yl)piperazin-1-yl)phenyl)amino)pyrimidin-4-yl)amino)-2-cyclopropylquinolin-5-yl)dimethylphosphine oxide] |  |  |  | 54 nM | 2.3 nM | 366 nM
COc1cc(N2CCC(N3CCN(C)CC3)CC2)c(-c2cnn(C(F)F)c2)cc1Nc1ncc(Br)c(Nc2ccc3nc(C4CC4)ccc3c2P(C)(C)=O)n1 [Compound J-067, (6-((5-bromo-2-((5-(1-(difluoromethyl)-1H-pyrazol-4-yl)-2-methoxy-4-(4-(4-methylpiperazin-1-yl)piperidin-1-yl)phenyl)amino)pyrimidin-4-yl)amino)-2-cyclopropylquinolin-5-yl)dimethylphosphine oxide] |  |  |  | 37.3 nM | 2.4 nM | 632 nM
COc1cncc(N2CCN(c3cc(OC)c(Nc4ncc(Br)c(Nc5ccc6nc(C7CC7)ccc6c5P(C)(C)=O)n4)cc3-c3cnn(C)c3)CC2)n1 [Compound J-049, (6-((5-Bromo-2-((2-methoxy-4-(4-(6-methoxypyrazin-2-yl)piperazin-1-yl)-5-(1-methyl-1H-pyrazol-4-yl)phenyl)amino)pyrimidin-4-yl)amino)-2-cyclopropylquinolin-5-yl)dimethylphosphine oxide] |  |  |  | 109 nM | 8.5 nM | 2300 nM

Source: patent publication US20230131025A1, “QUINOLYL PHOSPHINE OXIDE COMPOUND, AND COMPOSITION AND APPLICATION THEREOF” (Betta Pharmaceuticals Co., Ltd., priority 2020, published 2023)
